Converted amounts (≈) assume the structure as drawn. Read-outs that look alike come from different tables or passages of the source.
Assays:
[1] = tested on: P388 mouse leukemia cells; assay: Activity against tumor cell growth (P388, MTT, 72 h); assay type: cell-based; conditions: read-out: IC50 (50% growth inhibition concentration)
Procedure, shortened: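 P388 cells at 1.5×10^5 cells/ml in RPMI1640 with 10% FBS, 2 mM glutamine and 5 μM 2-hydroxyethyldisulfide; DMSO-dissolved compound diluted in medium, 72 h at 37 °C, 5% CO2. MTT added for 3 h, formazan dissolved in HCl-isopropanol, A540 read. IC50 from absorbance ratio versus untreated cells.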

Colon-26 cells = assay: Antineoplastic activity, mice having Colon-26 cells transplanted subcutaneously; assay type: in vivo, mouse (female, CDF1 strain); conditions: Mus musculus, Colon 26, iv, 168 h, read-out: T/C (average tumor weight, dosed vs. solvent-dosed control)
Experimental: The test compound was dissolved in dimethylsulfoxide, and the solution was adequately diluted with 10% Emulfore EL620(produced by Rhone Poulenc Co.) to prepare the test compound solution. The antineoplastic activity was evaluated as below.
To the lateral region of a female mouse (CDF1 strain, 8 to 12 week age), 1×10^6 Colon-26 cells were transplanted subcutaneously. On the sixth day after the transplantation, the test medicine solution-was injected into the tail vein in a single dose. Seven to twelve mice were employed for the solvent-dosed control group, and five mice were employed for the dosed group. One week after the dosage, the tumor was cut out, and the weight thereof was measured. The antineoplastic effect was evaluated by the ratio (T/C) of the average tumor weight of the dosed group (T) to the average tumor weight of the solvent-dosed control group (C).

[2] = P388 mouse leukemia cells, 72 h, 37° C., MTT
[3] = i.v. 0.5 mg/kg single dose on sixth day, tumor weighed one week after dosage

Structure (SMILES) | IC50 [1, 2] [ng/mL] | IC50 ([1]; Mus musculus, P388, 72 h) [ng/mL] | response vs control in vivo at 0.5 mg/kg (Colon-26 cells) [%] | other results
COC(=O)c1c(C(F)(F)F)[nH]c2c(O)cc3c(c12)[C@H](CCl)CN3C(=O)c1cc2cc(NC(=O)c3cc4cc(OC)c(OC)c(OC)c4o3)ccc2[nH]1 [Example 78, Methyl (1S)-1-chloromethyl-5-hydroxy.-7trifluoromethyl-3-[5-(5,6,7-trimethoxybenzofuran-2-ylcarbonyl)amino-1H-indol-2-ylcarbonyl]-1,2,3,6-tetrahydropyrrolo[3,2-e]indole-8-carboxylate] | 0.33 (≈ 0.445 nM) |  |  | response vs control in vivo at 0.125 mg/kg (Colon-26 cells; i.v. 0.125 mg/kg single dose on sixth day, tumor weighed one week after dosage): 26%
CCN(CC)c1ccc2cc(C(=O)Nc3ccc4[nH]c(C(=O)N5C[C@@H](CCl)c6c5cc(O)c5[nH]c(C(F)(F)F)c(C(=O)OC)c65)cc4c3)oc2c1 [Example 79, Methyl (1S)-1-chloromethyl-3-[5-(6-diethylaminobenzofuran-2-ylcarbonyl)amino-1H-indol-2-ylcarbonyl]-5-hydroxy-7-trifluoromethyl-1,2,3,6tetrahydropyrrolo[3,2-e]indole-8-carboxylate] | 2.1 (≈ 2.91 nM) |  |  | response vs control in vivo at 0.5 mg/kg (Colon-26 cells; [3]): 9%
COC(=O)c1c(C(F)(F)F)[nH]c2c1[C@@]13C[C@@H]1CN(C(=O)c1cc4cccc(OC)c4o1)C3=CC2=O [Example 86, Methyl (7bR, 8aS)-2-(7-methoxybenzofuran-2-ylcarbonyl)-6-trifluoromethyl-1,2,8,8a-tetrahydrocyclopropa[c]pyrrolo[3,2-e]indol-4 (5H)-one-7-carboxylate] | 1.1 (≈ 2.26 nM) |  |  | response vs control in vivo at 0.5 mg/kg (Colon-26 cells; [3]): 40%
COC(=O)c1c(C(F)(F)F)[nH]c2c1[C@@]13C[C@@H]1CN(C(=O)/C=C/c1ccc(OC)cc1)C3=CC2=O [Example 90, Methyl (7bR, 8aS)-2-[2-(4-methoxyphenyl)ethylene-1-ylcarbonyl)-6-trifluoromethyl-1,2,8,8a-tetrahydrocyclopropa[c]pyrrolo[3,2-e]indol-4 (5H)-one-7-carboxylate] | 0.9 (≈ 1.91 nM) |  |  | response vs control in vivo at 1 mg/kg (Colon-26 cells; i.v. 1.0 mg/kg single dose on sixth day, tumor weighed one week after dosage): 31%
COC(=O)c1c(C(F)(F)F)[nH]c2c(OC(=O)N3CCN(C)CC3)cc3c(c12)[C@H](CCl)CN3C(=O)c1cc2cc(NC(=O)c3cc4c(OC)c(OC)c(OC)cc4cn3)ccc2[nH]1 [Example 97] |  | 5.8 (≈ 6.6 nM) | 11 | 
COC(=O)c1c(C(F)(F)F)[nH]c2c(OC(=O)N3CCN(C)CC3)cc3c(c12)[C@H](CCl)CN3C(=O)c1cc2cc(NC(=O)c3cc4c(cn3)[nH]c3ccccc34)ccc2[nH]1 [Example 98, Methyl (1S)-1-chloromethyl-5-(4-methylpiperazin-1-ylcarbonyl)oxy-3-[5-[(9H-pyrido[3,4-b]indol-3-ylcarbonyl)amino]-1H-indol-2-ylcarbonyl]-7-trifluoromethyl-1,2,3,6-tetrahydropyrrolo[3,2-e]indole-8-carboxylate] |  | 5.7 (≈ 6.89 nM) | 29 | 
COC(=O)c1c(C(F)(F)F)[nH]c2c(OC(=O)N3CCN(C)CC3)cc3c(c12)[C@H](CCl)CN3C(=O)c1cc2cc(NC(=O)c3cc4ccccc4cn3)ccc2[nH]1 [Example 107, Methyl (1S)-1-chloromethyl-3-[5-[(isoquinolin-3-ylcarbonyl)amino]-1H-indol-2-ylcarbonyl]-5-(4-methylpiperazin-1-ylcarbonyl)oxy-7-trifluoromethyl-1,2,3,6-tetrahydropyrrolo[3,2-e]indole-8-carboxylate] |  | 4.6 (≈ 5.84 nM) | 7 | 
COC(=O)c1c(C(F)(F)F)[nH]c2c(O)cc3c(c12)[C@H](CCl)CN3C(=O)c1cc2cc(NC(=O)Nc3ccc4[nH]c(C(=O)N5C[C@@H](CCl)c6c5cc(O)c5[nH]c(C(F)(F)F)c(C(=O)OC)c65)cc4c3)ccc2[nH]1 [Example 108, (S,S)-3-3'-[Carbonylbis(imino-1H-indol-5,2-dicarbonyl)]bis-[1-chloromethyl-5-hydroxy-7-trifluoromethyl-1,2,3,6-tetrahydropyrrolo[3,2-e]indole-8-carboxylic acid methyl ester]] | 0.007 (≈ 0.00673 nM) |  |  | response vs control in vivo at 0.0156 mg/kg (Colon-26 cells; i.v. 0.0156 mg/kg single dose on sixth day, tumor weighed one week after dosage): 6%
